Read-outs that look alike come from different tables or passages of the source.
B1: fibroblast growth factors 7 (protein, UniProt P21781 32-194, looked up)
Fibroblast growth factor 7: CNDMTPEQMATNVNCSSPERHTRSYDYMEGGDIRVRRLFCRTQWYLRIDKRGKVKGTQEMKNNYNIMEIRTVAVGIVAIKGVESEFYLAMNKEGKLYAKKECNEDCNFKELILENHYNTYASAKWTHNGGEMFVALNQKGIPVRGKKTKKEQKTAHFLPMAIT
notes: medium additive, supplier R&D
B2: human fibroblast growth factor −10 (protein, UniProt O15520 38-208, looked up)
Fibroblast growth factor 10: QALGQDMVSPEATNSSSSSFSSPSSAGRHVRSYNHLQGDVRWRKLFSFTKYFLKIEKNGKVSGTKKENCPYSILEITSVEIGVVAVKAINSNYYLAMNKKGKLYGSKEFNNDCKLKERIEENGYNTYASFNWQHNGRQMYVALNGKGAPRRGQKTRRKNTSAHFLPMVVHS
notes: medium additive, supplier sino biological
B3: R-spondin1 (protein, UniProt Q2MKA7 21-263, looked up)
R-spondin-1: SRGIKGKRQRRISAEGSQACAKGCELCSEVNGCLKCSPKLFILLERNDIRQVGVCLPSCPPGYFDARNPDMNKCIKCKIEHCEACFSHNFCTKCKEGLYLHKGRCYPACPEGSSAANGTMECSSPAQCEMSEWSPWGPCSKKQQLCGFRRGSEERTRRVLHAPVGDHAACSDTKETRRCTVRRVPCPEGQKRRKGGQGRRENANRNLARKESKEAGAGSRRRKGQQQQQQQGTVGPLTSAGPA
notes: medium additive, supplier R&D
B4: amphiregulin (protein, UniProt P15514 101-187, looked up)
Amphiregulin: SVRVEQVVKPPQNKTESENTSDKPKRKKKGGKNGKNRRNRKKKNPCNAEFQNFCIHGECKYIEHLEAVTCKCQQEYFGERCGEKSMK
modifications: Amphiregulin
notes: medium additive, supplier MCE
B5: noggin (protein, UniProt Q13253 28-232, looked up)
Noggin: QHYLHIRPAPSDNLPLVDLIEHPDPIFDPKEKDLNETLLRSLLGGHYDPGFMATSPPEDRPGGGGGAAGGAEDLAELDQLLRQRPSGAMPSEIKGLEFSEGLAQGKKQRLSKKLRRKLQMWLWSQTFCPVLYAWNDLGSRFWPRYVKVGSCFSKRSCSVPEGMVCKPSKSVHLTVLRWRCQRRGGQRCGWIPIQYPIISECKCSC
notes: medium additive, supplier R&D

Legend:
[1] = tested on: primary ovarian cancer cells; test: Effect of single additives in Basal Medium on proliferation of primary ovarian cancer cells (cell counting); format: cell-based, human; set-up: key: +: compared with the Basal Medium, the culture medium added with the additive(s) has the effect of promoting the proliferation of two cases of primary ovarian cancer cells isolated from ovarian cancer tissue; −: the culture medium added with the additive(s) has the effect of promoting the proliferation of one case of primary ovarian cancer cells isolated from ovarian cancer tissue; the culture medium added with the additive(s) has no significant effect on the proliferation of at least two cases of primary ovarian cancer cells isolated from ovarian cancer tissue
Protocol: First, a Basal Medium containing initial medium was prepared. The initial medium may be selected from the group consisting of DMEM/F12, DMEM, F12, or RPMI-1640 commonly used in the art. In this example, the formulation of the Basal Medium is: DMEM/F12 medium (purchased from Corning)+100 μg/mL Primocin (purchased from InvivoGen, 0.2% (v/v), commercial product has a concentration of 50 mg/mL). Different types of additives (see Table 1) were added to the Basal Medium to prepare culture mediums for primary ovarian cancer cells with different components.
Tissue samples (intraoperative) of ovarian cancer solid tumor were obtained from patients by professional medical practitioner of professional medical institutions, and all patients have signed the informed consent. Intraoperative samples having the size of 0.25 cm^3, endoscopic samples having the size of 0.025 cm^3 were stored and transported using commercial tissue preservation solution (manufacturer: Miltenyi Biotec).
Tissue digestion solution: 1640 medium (Corning, 10-040-CVR), collagenase II (2 mg/mL), collagenase IV (2 mg/mL), DNase (50 U/mL), hyaluronidase (0.75 mg/mL), calcium chloride (3.3 mM), BSA (10 mg/mL).
• 3.1. Tissue samples were transferred from the ultra-clean workbench to a culture dish, and the tissue with blood was removed. The tissue samples were rinsed twice with Basal Medium, and then were transferred to another culture dish and mechanically cut with a sterile scalpel into tissue blocks of 1×1×1 mm^3 in size. • 3.2. The cut intraoperative tissues were aspirated into a 15 mL centrifuge tube, to which 5 mL of Basal Medium was added, fully mixed, and then centrifuged at 1500 rpm for 4 minutes. • 3.3. The supernatant was discarded, and the resultant was added with 1:3 mixture of Basal Medium and tissue digestion solution (the amount of tissue digestion solution added was about 10 mL tissue digestion solution for 1 g of tumor tissue). The samples were marked with names and numbers, sealed with sealing film, and then digested in a shaker (Zhichu Instrument ZQLY-180N) at 37° C., 300 rpm. The completion of digestion was determined via observation every 30 minutes, based on the existing of visible particles or not. The digestion time was 4 hours. • 3.4. After the digestion was completed, undigested tissue mass was filtered out through a […] filter mash. The tissue mass on the filter mash was rinsed into the centrifuge tube with Basal Medium to reduce cell loss. The resultant was centrifuged at 25° C., 1500 rpm for 4 minutes. • 3.5. […] If there were blood cells, 8 mL blood cell lysate (purchased from Sigma) was added in the resultant and fully mixed, lysed at 4° C. for 20 minutes, with inverting and mixing once during the process. The resultant was centrifuged at 25° C., 1500 rpm for 4 minutes. • 3.6. The supernatant was discarded and 2 mL Basal Medium was added to resuspend the cells for reserve.
• 4.1. Microscopic observation: a small amount of resuspended cells were plated in a culture dish, and the density and morphology of cancer cells were observed under a microscope (CNOPTEC, BDS400); • 4.2. Viable cell counting: 12 μL of the resuspended cell suspension was fully mixed with 12 μL of trypan blue staining solution (Sangon Biotech (Shanghai) Co., Ltd.), and then 20 μL of the mixture was added into a cell counting plate (Countstar, specifications: 50 pieces/box).
The primary ovarian cancer cells isolated from 2 cases of ovarian cancer tissues (numbered L40 and LQQ) according to the above step (2) were resuspended in the culture medium in Table 1, respectively and the cell number was counted. The Basal Medium was mixed with matrigel (Corning®, 356231) in a 50:1 ratio on ice. 300 μL of the mixture was plated and incubated in a 5% CO2 incubator at 37° C. for 25-35 minutes, preferably 30 minutes. The supernatant was discarded. […]

[2] = tested on: primary ovarian cancer cells; test: Effect of different concentrations of added factors on proliferation of primary ovarian cancer cells (ratio to Blank Control); format: cell-based, human
[3] = additive in Basal Medium at the final concentration, samples L40 and LQQ, 7-10 days of culture, versus Basal Medium
[4] = factor added to the medium lacking it, FIGS. 2A-2L
[5] = samples A26083, L56, L62, FIGS. 2A-2L

Row | Molecule | Level of promoting proliferation [1, 3] | proliferation-promoting effect on primary ovarian cancer cells [2, 5] | also measured
1 | CN1C(=O)C(c2c(F)cccc2F)N(C)c2nc(Nc3ccc(S(N)(=O)=O)cc3)ncc21 (centres unmarked) [Compound 1, 4-((7-(2,6-Difluorophenyl)-5,8-dimethyl-6-oxo-5,6,7,8-tetrahydropteridin-2-yl)amino)benzsulfamide] | + | significant proliferation-promoting effect | concentration at which the cell proliferation effect is most significant [2, 4]: 5 µM
2 | NC(=O)c1cccnc1 [nicotinamide, reference compound] | ○ |  | 
3 | C[C@@H](N)[C@H]1CC[C@H](C(=O)Nc2ccncc2)CC1 [Compound Y-27632, Y-27632, reference compound] | + | significant proliferation-promoting effect | concentration at which the cell proliferation effect is most significant [2, 4]: 5 µM
4 | neuregulin −1 | ○ |  | 
5 | C[C@]12CCC(=O)C=C1CC[C@@H]1[C@@H]2[C@@H](O)C[C@@]2(C)[C@H]1CC[C@]2(O)C(=O)CO [hydrocortisone, reference compound] | ○ |  | 
6 | vitamin E [reference compound] | ○ |  | 
7 | basic fibroblast growth factor | ○ |  | 
8 | Cc1c[nH]c(-c2cnc(NCCNc3ccc(C#N)cn3)nc2-c2ccc(Cl)cc2Cl)n1 [CHIR99021, reference compound] | ○ |  | 
9 | epidermal growth factor | − | significant proliferation-promoting effect | preferable amount according to the results of this example ([2]; preferably, FIGS. 2A-2L): 2.5 to 40 ng/mL
10 | CC(=O)C(=O)[O-].[Na+] [sodium pyruvate, reference compound] | ○ |  | 
11 | insulin-like growth factor-1 | + | significant proliferation-promoting effect | concentration at which the cell proliferation effect is most significant [2, 4]: 50 ng/mL; preferable amount according to the results of this example ([2]; preferably, FIGS. 2A-2L): 25 to 100 ng/mL
12 | cholera toxin |  |  | Level of promoting proliferation [1]: +; concentration at which the cell proliferation effect is most significant [2]: 100 ng/mL; more preferable amount according to the results of this example [2]: 0.05 to 0.2 µg/mL; preferable amount according to the results of this example [2]: 50 to 800 ng/mL; proliferation-promoting effect on primary ovarian cancer cells [2]: significant proliferation-promoting effect
13 | Cc1cccc(-c2nn(C(=S)Nc3ccccc3)cc2-c2ccnc3ccccc23)n1 [Compound A8301, A8301, reference compound] | ○ |  | 
14 | insulin | + | significant proliferation-promoting effect | concentration at which the cell proliferation effect is most significant [2, 4]: 9000 ng/mL; more preferable amount according to the results of this example ([2]; more preferably, FIGS. 2A-2L): 3 to 9 µg/mL
15 | hepatocyte growth factor | ○ |  | 
16 | Oc1ccc(-c2nc(-c3ccncc3)c(-c3ccc(F)cc3)[nH]2)cc1 [SB202190, reference compound] | ○ |  | 
17 | CCCCC[C@H](O)/C=C/[C@H]1[C@H](O)CC(=O)[C@@H]1C/C=C\CCCC(=O)O [prostaglandin E2, reference compound] | − | significant proliferation-promoting effect | concentration at which the cell proliferation effect is most significant [2, 4]: 2.5 µM
18 | NC(=O)c1ccc(-c2nc(-c3ccc4c(c3)OCO4)c(-c3ccccn3)[nH]2)cc1 [SB431542, reference compound] | ○ |  | 
19 | B1 | ○ |  | 
20 | B2 | ○ |  | 
21 | B3 | ○ |  | 
22 | B4 | + | significant proliferation-promoting effect | concentration at which the cell proliferation effect is most significant [2, 4]: 3 ng/mL; preferable amount according to the results of this example ([2]; preferably, FIGS. 2A-2L): 1 to 81 ng/mL
23 | B5 | ○ |  | 

Source: US20240418703A1, “CULTURE MEDIUM FOR PRIMARY OVARIAN CANCER CELLS, CULTURE METHOD AND APPLICATION THEREOF” (PRECEDO PHARMACEUTICALS CO., LTD, priority 2021, published 2024)
